pIC50: −log10 of the molar value. Read-outs that look alike come from different tables or passages of the source.
What was measured:
[1] = test system: RSV F-protein expression in Hep2 cells; assay: RSV F-protein expression in Hep2 cells infected with RSV; type: cell-based, respiratory syncitial virus (RSV A2); conditions: for Hep2 E-max (%): Hep2 cells, test conc μg/mL: 0.0016-0.2 (Examples 1, 59), 0.04-0.2 (fluticasone propionate), 10 (ribavirin); for IC50: human respiratory syncytial virus, HEp-2, 96 h
Procedure: (§1) Normal human bronchial epithelial cells (NHBEC) grown in 96 well plates, were infected at a multiplicity of infection (MOI) of 0.001 with RSV A2 (Strain A2, HPA, Salisbury, UK;) in LHC8 Media: RPMI-1640 (50:50) containing 15 mM magnesium chloride, and incubated for 1 hr at 37° C. to promote adsorption. The cells were then washed with PBS to remove non-infected virus particle and incubated for 4 days in fresh media. As appropriate, cells were pre-incubated with the test compound or DMSO for 2 hr, and then added again after wash with PBS as shown above.
(§2) The cells were fixed with 4% formaldehyde in PBS solution for 20 min, washed with washing buffer: PBS including 0.5% BSA and 0.05% Tween-20) (WB) and incubated with blocking solution (5% condensed milk in PBS) for 1 hr. Cells were then washed with WB and incubated for 1 hr at RT with anti-RSV (2F7) F-fusion protein antibody (mouse monoclonal) (lot 798760, Cat. No. ab43812, Abcam). After washing, cells were incubated with an HRP-conjugated secondary antibody (lot 00053170, Cat. No. P0447, Dako) and then TMB substrate (substrate reagent pack (lot 269472, Cat. No. DY999, R&D Systems, Inc.) was added.
(§3) The reaction was stopped by the addition of 2NH2SO4 (50 μL) and the resultant signal was determined colorimetrically (OD: 450 nm with a reference wavelength of 655 nm) in a microplate reader (Varioskan® Flash, ThermoFisher Scientific). Cells were then washed and a 2.5% crystal violet solution (lot 8656, Cat. No. PL7000, Pro-Lab Diagnostics) was applied for 30 mins. After washing with WB, 100 μL of 1% SDS was added to each well, and plates were shaken lightly on the shaker for 1 hr prior to reading the absorbance at 595 nm. The measured OD450-655 readings were corrected to the cell number by dividing the OD450-655 by the OD595 readings. The percentage inhibition for each well was calculated and the IC50 value was calculated from the concentration-response curve generated by the serial dilutions of compound.
(§4) HBECs obtained from patients with cystic fibrosis (CF-BEC) and Hep2 cells (human larynx epidermoid carcinoma cell line) were also used.

[2] = test system: RSV F-protein expression in NHBEC; assay: RSV F-protein expression in NHBEC infected with RSV A2 (in vitro RSV virus load); type: cell-based, respiratory syncitial virus (RSV A2); conditions: for NHBEC E-max (%): test conc μg/mL: 0.0016-0.2 (Examples 1, 59), 0.04-0.2 (fluticasone propionate), 10 (ribavirin); for inhibition at 0.04 µg/mL: read-out: % inhibition (at 0.04 μg/mL)
Procedure: as §1, §2, §3

[3] = test system: RSV F-protein expression in CF-BEC; assay: RSV F-protein expression in CF-BEC (HBECs from patients with cystic fibrosis) infected with RSV; type: cell-based, respiratory syncitial virus (RSV A2); conditions: for CF-BEC E-max (%): test conc μg/mL: 0.0016-0.2 (Examples 1, 59), 0.04-0.2 (fluticasone propionate), 10 (ribavirin); for IC50: human respiratory syncytial virus, 96 h, read-out: CF-BEC IC50 (nM)
Procedure: as §1, §2, §3, §4

[4] = test system: human RSV A2; assay: RSV virus load in mouse lung; type: in vivo, Balb/c mice; conditions: for Lung virus load (TCID50/g lung tissue ×10^3), day 3: 3 days post RSV infection; for Lung virus load (TCID50/g lung tissue ×10^3), day 5: 5 days post RSV infection; for Lung virus load (TCID50/g lung tissue ×10^3), day 7: 7 days post RSV infection; for inhibition of lung viral load: Day 5 post-infection (peak of virus titre), versus vehicle-dosed animals; for augmentation of viral load at Day 9: Day 9, when virus had been eliminated in vehicle-treated mice
Procedure: Wild type, specific pathogen-free male Balb/c mice aged 8 weeks and weighing approximately 25 g were obtained from the Animal Resource Centre Pty. Ltd., Australia. On day zero, appropriate animal groups were anaesthetised with the inhalation anaesthetic methoxyfluorane and nasally inoculated with either virus diluent (low protein serum free VPSSM from Invitrogen) or 10^6 TCID50 units of human RSV A2 in a volume of 50 μL. […] Eleven to thirteen animals from each group were sacrificed on days 3, 5, 7 and 9 to enable lung viral load to be determined using a plaque assay (Table 5).

[5] = test system: RSV Memphis 37; assay: RSV titre assay (CPE in Hep2) of air-liquid interface cultured primary nasal epithelial cells; type: cell-based, respiratory syncitial virus (RSV Memphis 37); conditions: primary 3D cultured nasal epithelial cells, RSV Memphis 37, log [TCID50], FIG. 2
Procedure: Primary nasal epithelial cells, cultured using an air-liquid interface, were purchased from Epithelix Sarl (Geneva, Switzerland). Fresh, warmed media (200 μL) containing either the test compound at the selected concentration or vehicle (DMSO; final concentration of 0.5%) was transferred to the apical chamber, and fresh, warmed media (700 μL) containing either the test compound at the selected concentration or vehicle (DMSO; final concentration of 0.5%) were transferred to the bottom chamber. After incubation for 2 hr, the media in upper well was removed carefully. The following day, fresh, warmed media (200 μL) containing either the test compound at the selected concentration or vehicle (DMSO; final concentration of 0.5%) was transferred to the apical chamber again, and after incubation for 2 hr, the media was removed. On the third day, cells were treated again for 2 hr, and the media was removed. […]
The virus titre was estimated by CPE assay in Hep2 cells as follows: Supernatant (20 μL) was collected and 10-fold serial dilutions were prepared in 5%-FBS DMEM. […] The resultant cytopathic effects (CPE) were assessed by visual inspection 3 days after infection. The amount of virus required to infect 50% of Hep2 cells was calculated for each treatment and is reported as log [TCID50] […]

[6] = test system: RSV Memphis 37 induced IL-8 release; assay: RSV Memphis 37 induced IL-8 release in air-liquid interface cultured primary nasal epithelial cells; type: cell-based; conditions: primary 3D cultured nasal epithelial cells, RSV Memphis 37, FIG. 1
Procedure: Primary nasal epithelial cells, cultured using an air-liquid interface, were purchased from Epithelix Sarl (Geneva, Switzerland). Fresh, warmed media (200 μL) containing either the test compound at the selected concentration or vehicle (DMSO; final concentration of 0.5%) was transferred to the apical chamber, and fresh, warmed media (700 μL) containing either the test compound at the selected concentration or vehicle (DMSO; final concentration of 0.5%) were transferred to the bottom chamber. After incubation for 2 hr, the media in upper well was removed carefully. The following day, fresh, warmed media (200 μL) containing either the test compound at the selected concentration or vehicle (DMSO; final concentration of 0.5%) was transferred to the apical chamber again, and after incubation for 2 hr, the media was removed. On the third day, cells were treated again for 2 hr, and the media was removed.
The cells in the apical well were infected with 50 μL of RSV Memphis 37 virus (Meridian) 2 (producing an MOI of approximately 0.1 at the estimated cell number of 1×10^6/well) and incubated for 1 hr. The apical media was then removed by aspiration and the wells were washed twice with warmed PBS. The plate was incubated at 37° C. […]
IL-8 concentrations were determined using a Duoset ELISA development kit (R&D Systems, Minneapolis, Minn.; FIG. 1)

[7] = human respiratory syncytial virus, 96 h
[8] = intra-tracheal 20 μL of 0.1 mg/mL, mean ± SEM

COCC(=O)Nc1cc(Oc2ccc(NC(=O)Nc3cc(C(C)(C)C)nn3-c3ccc(C)cc3)c3ccccc23)ccn1 [Example 59, N-(4-(4-(3-(3-tert-Butyl-1-p-tolyl-1H-pyrazol-5-yl)ureido)naphthalen-1-yloxy)pyridin-2-yl)-2-methoxyacetamide]
Hep2 E-max (%) [1]: 58% | IC50 ([1]; read-out: Hep2 IC50 (nM)): 289 nM | NHBEC E-max (%) [2]: 78% | inhibition at 0.04 µg/mL [2, 7]: 67.5% | CF-BEC E-max (%) [3]: 87% | IC50 [3]: 58 nM | Lung virus load (TCID50/g lung tissue ×10^3), day 3 [4, 8]: 81 ±29 TCID50/g lung tissue ×10^3 | Lung virus load (TCID50/g lung tissue ×10^3), day 5 [4, 8]: 448 ± 268 TCID50/g lung tissue ×10^3 | Lung virus load (TCID50/g lung tissue ×10^3), day 7 [4, 8]: 2.4 ± 0.8 TCID50/g lung tissue ×10^3 | Lung virus load (TCID50/g lung tissue ×10^3), day 9 ([4]; 9 days post RSV infection, intra-tracheal 20 μL of 0.1 mg/mL, mean ± SEM): 0.3 ± 0.1 TCID50/g lung tissue ×10^3 | inhibition of lung viral load [4]: 90% | augmentation of viral load at Day 9 [4]: did not augment viral load

CCC(=O)O[C@]1(C(=O)SCF)[C@H](C)C[C@H]2[C@@H]3C[C@H](F)C4=CC(=O)C=C[C@]4(C)[C@@]3(F)[C@@H](O)C[C@@]21C [Fluticasone propionate, reference compound]
NHBEC E-max (%) [2]: −38% | CF-BEC E-max (%) [3]: 10%

COCC(=O)Nc1cc(COc2ccc(NC(=O)Nc3cc(C(C)(C)C)nn3-c3ccc(C)cc3)c3ccccc23)ccn1 [Example 1, N-(4-((4-(3-(3-tert-Butyl-1-p-tolyl-1H-pyrazol-5-yl)ureido)naphthalen-1-yloxy)methyl)pyridin-2-yl)-2-methoxy acetamide]
inhibition on RSV viral load [5]: strong inhibition | Hep2 E-max (%) [1]: 24% | inhibition on RSV-induced IL-8 production [6]: strong inhibition | NHBEC E-max (%) [2]: 51% | pIC50 [2, 7]: 7.39 | inhibition at 0.04 µg/mL [2, 7]: 46.8% | IC50 ([2]; human respiratory syncytial virus, 96 h, read-out: NHBEC IC50 (nM)): 41 nM | CF-BEC E-max (%) [3]: 84% | IC50 [3]: 69 nM | Lung virus load (TCID50/g lung tissue ×10^3), day 3 [4, 8]: 66 ± 18 TCID50/g lung tissue ×10^3 | Lung virus load (TCID50/g lung tissue ×10^3), day 5 [4, 8]: 1,545 ± 918^ TCID50/g lung tissue ×10^3 | Lung virus load (TCID50/g lung tissue ×10^3), day 7 [4, 8]: 7.1 ± 5.2 TCID50/g lung tissue ×10^3 | inhibition of lung viral load [4]: 67% | augmentation of viral load at Day 9 [4]: did not augment viral load

Cc1ccc(-n2nc(C(C)(C)C)cc2NC(=O)Nc2ccc(Oc3ccnc(NC(=O)N4CCCC4)c3)c3ccccc23)cc1 [Example 65, N-(4-(4-(3-(3-tert-Butyl-1-p-tolyl-1H-pyrazol-5-yl)ureido)naphthalen-1-yloxy)pyridin-2-yl)pyrrolidine-1-carboxamide]
inhibition at 0.04 µg/mL [2, 7]: 56.5%

Cc1ccc(-n2nc(C(C)(C)C)cc2NC(=O)Nc2ccc(OCCc3ccnc(NC(N)=O)c3)c3ccccc23)cc1 [Example 40, 4-(2-(4-(3-(3-tert-Butyl-1-p-tolyl-1H-pyrazol-5-yl)ureido)naphthalen-1-yloxy)ethyl)-3-(pyridin-2-yl)urea]
pIC50 [2, 7]: 6.99 | inhibition at 0.04 µg/mL [2, 7]: 24.9%

CNC(=O)Nc1cc(Oc2ccc(NC(=O)Nc3cc(C(C)(C)C)nn3-c3ccc(C)cc3)c3ccccc23)ccn1 [Example 88]
inhibition at 0.04 µg/mL [2, 7]: 71.7%

NC(=O)c1ncn([C@@H]2O[C@H](CO)[C@@H](O)[C@H]2O)n1 [Ribavirin, reference compound]
Hep2 E-max (%) [1]: 93% | IC50 ([1]; read-out: Hep2 IC50 (footnote a: μM)): 9000 nM | NHBEC E-max (%) [2]: 78% | CF-BEC E-max (%) [3]: 53%

Source: patent US9079893B2, “Ureido-pyrazole derivatives for use in the treatment of respiratory syncitial virus (RSV) infection” (Respivert, Ltd., priority 2010, dated 2015)
